Eleven compounds from PubChem BioAssay (NCI) can be followed below.

SMILES strings stand for the structures.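 How tested: cells in 96-well plates exposed to compound for 48 hours at five concentrations. Here, GI50 denotes the concentration required for 50% inhibition of growth. TGI marks complete inhibition of growth.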

Test systems include NCI/ADR-RES ovarian; SR leukemia; SF-539 CNS; SK-MEL-2 melanoma; RPMI-8226 leukemia; SK-MEL-28 melanoma; HOP-62 NSCLC; SK-MEL-5 melanoma; MDA-MB-231 breast; OVCAR-5 ovarian.
What all share (assay): NCI-60 cell line screen, 48 h

`COC(=O)C1CCCN1C(=O)[C@@H]1CCCN1C(=O)[C@H](Cc1c[nH]c2ccccc12)NC(=S)Nc1cc(C(F)(F)F)cc(C(F)(F)F)c1` (some centres not stated): the GI50 in the assay with NCI/ADR-RES ovarian was 3.85 µM; in the assay with SR leukemia it was 1.92 µM; with SF-539 CNS, 2.43 µM; in the assay on SK-MEL-2 melanoma, 2.24 µM; in the assay with RPMI-8226 leukemia, 2.93 µM; in the assay on SK-MEL-28 melanoma, 3.54 µM. Also, the GI50 in the assay on HOP-62 NSCLC was 2.17 µM; with SK-MEL-5 melanoma it was 2.63 µM; in the assay with MDA-MB-231 breast, 1.62 µM. Besides, the TGI with NCI/ADR-RES ovarian turned out to be 22.1 µM; in the assay on SR leukemia, 5.03 µM; with SF-539 CNS it was 5.85 µM; with SK-MEL-2 melanoma it was 4.25 µM; with RPMI-8226 leukemia it was 8 µM; in the assay on SK-MEL-28 melanoma, 10.7 µM. Besides, the TGI in the assay with HOP-62 NSCLC came to 6.5 µM; with SK-MEL-5 melanoma it was 7.61 µM; in the assay with MDA-MB-231 breast, 3.4 µM.
For the compound `Clc1ccc2nnnn2n1`, the GI50 was 5.61 µM with NCI/ADR-RES ovarian; 1.46 µM in the assay on SR leukemia; 4.7 µM in the assay on OVCAR-5 ovarian; 2.88 µM with SK-MEL-2 melanoma; 3.54 µM with RPMI-8226 leukemia; 12.3 µM with SK-MEL-28 melanoma. For the same compound, the GI50 with HOP-62 NSCLC was 4.51 µM; in the assay with SK-MEL-5 melanoma it was 2.24 µM; in the assay with MDA-MB-231 breast, 2.64 µM. The TGI in the assay with NCI/ADR-RES ovarian is > 100 µM; in the assay on SR leukemia, 8 µM; in the assay with OVCAR-5 ovarian, 20.5 µM; in the assay with SK-MEL-2 melanoma, 20.7 µM; in the assay with RPMI-8226 leukemia, 28 µM; in the assay with SK-MEL-28 melanoma, 63 µM. In addition, the TGI was 33.1 µM in the assay with HOP-62 NSCLC, 6.19 µM in the assay on SK-MEL-5 melanoma and 7.01 µM in the assay with MDA-MB-231 breast.
Regarding `COc1ccccc1C1c2cc3c(cc2OC(O)(CO)C1C(=O)O)OCO3` (configuration not stated) (tested in a mixture with another compound), the TGI with SR leukemia, in the assay on SF-539 CNS, with OVCAR-5 ovarian, in the assay on SK-MEL-2 melanoma, in the assay with RPMI-8226 leukemia and in the assay on SK-MEL-28 melanoma was > 100 µM in each case. Also, the TGI in the assay with HOP-62 NSCLC and in the assay on SK-MEL-5 melanoma was > 100 µM throughout.
For `COc1ccc(C(=O)/C=C/c2ccc3c(c2)OCO3)c(OCc2ccccc2)c1`, the TGI was > 27.1 µM in the assay with SR leukemia; > 100 µM in the assay on SF-539 CNS; > 100 µM in the assay on OVCAR-5 ovarian; > 100 µM in the assay on SK-MEL-2 melanoma; 76.6 µM in the assay with RPMI-8226 leukemia; > 100 µM in the assay on SK-MEL-28 melanoma. Moreover, the TGI in the assay on HOP-62 NSCLC, with SK-MEL-5 melanoma and in the assay with MDA-MB-231 breast was > 100 µM each time.
As for `COc1cc(C(O)C(=O)c2nc3ccc([N+](=O)[O-])cc3[nH]c2=O)ccc1O` (configuration not stated), the TGI in the assay on SR leukemia, with SF-539 CNS, in the assay with OVCAR-5 ovarian, in the assay with SK-MEL-2 melanoma, in the assay on RPMI-8226 leukemia and with SK-MEL-28 melanoma was > 100 µM each time. Moreover, the TGI in the assay with HOP-62 NSCLC and with SK-MEL-5 melanoma was > 100 µM in each case.
`O=C(O)CCC(NC(=O)c1ccccc1)C(=O)O` (configuration not stated): the TGI in the assay with SR leukemia, with SF-539 CNS, in the assay with OVCAR-5 ovarian, with SK-MEL-2 melanoma, in the assay on RPMI-8226 leukemia and in the assay with SK-MEL-28 melanoma was > 100 µM each time. Besides, the TGI in the assay with HOP-62 NSCLC and in the assay on SK-MEL-5 melanoma was > 100 µM throughout.
Consider `CC[C@@]1(OC(=O)CN)C(=O)OCc2c1cc1n(c2=O)Cc2cc3c(N)cccc3nc2-1`, for which the GI50 with NCI/ADR-RES ovarian is < 0.01 µM; in the assay on SR leukemia it was < 0.01 µM; in the assay with SF-539 CNS, < 0.01 µM; in the assay with OVCAR-5 ovarian it was 0.045 µM; in the assay with SK-MEL-2 melanoma, 0.132 µM; in the assay with RPMI-8226 leukemia, 0.0474 µM. Besides, the GI50 in the assay on SK-MEL-28 melanoma was 0.557 µM; in the assay on HOP-62 NSCLC, < 0.01 µM; with MDA-MB-231 breast, 1.43 µM. The TGI with NCI/ADR-RES ovarian was 0.258 µM; with SF-539 CNS it was < 0.0153 µM; in the assay with OVCAR-5 ovarian, 1.12 µM; with SK-MEL-2 melanoma, 0.49 µM; in the assay on SK-MEL-28 melanoma, > 20.1 µM; in the assay on MDA-MB-231 breast, > 21.5 µM.
Regarding `COc1cccc2c1C(=O)c1c(O)c3c(c(O)c1C2=O)C[C@@](O)(C(=O)CO)C[C@@H]3O[C@H]1C[C@H](N)[C@@H](O)[C@H](C)O1`, the GI50 is 0.0137 µM in the assay on SR leukemia; 1.27 µM in the assay on OVCAR-5 ovarian; 0.514 µM in the assay with SK-MEL-2 melanoma; 0.161 µM in the assay with RPMI-8226 leukemia; 0.351 µM in the assay on SK-MEL-28 melanoma; 0.16 µM with HOP-62 NSCLC. Also, the GI50 with MDA-MB-231 breast was 0.595 µM. Moreover, the TGI in the assay on SR leukemia worked out at 1.07 µM; with OVCAR-5 ovarian, 13 µM; in the assay on SK-MEL-2 melanoma, 3.09 µM; in the assay on RPMI-8226 leukemia it was 3.61 µM; in the assay with SK-MEL-28 melanoma, 1.35 µM; with HOP-62 NSCLC, 2.37 µM. For the same compound, the results for the TGI in the assay on SK-MEL-5 melanoma and with MDA-MB-231 breast were 0.623 µM and 12.1 µM, respectively.
For `COc1ccc(/C(=N\O)c2cc(C)c(OC)c(C)c2)cc1O`, the GI50 with NCI/ADR-RES ovarian is < 0.01 µM; in the assay on SR leukemia it was < 0.01 µM; in the assay with OVCAR-5 ovarian it was 0.0631 µM; in the assay with SK-MEL-2 melanoma it was 0.0328 µM; in the assay on SK-MEL-28 melanoma it was 20.9 µM; in the assay on HOP-62 NSCLC it was 0.0215 µM. Also, the results for the GI50 with SK-MEL-5 melanoma and with MDA-MB-231 breast were < 0.01 µM and 0.0438 µM, respectively. The TGI with NCI/ADR-RES ovarian, in the assay with SR leukemia, in the assay on OVCAR-5 ovarian, in the assay with SK-MEL-2 melanoma, in the assay on SK-MEL-28 melanoma and in the assay on HOP-62 NSCLC was > 100 µM throughout. The values for the TGI with SK-MEL-5 melanoma and in the assay with MDA-MB-231 breast were 0.068 µM and > 100 µM, respectively.
`CC(C)c1c(O)ccc2c1CCC1C(C)(C)CCCC21C` (configuration not stated): the TGI worked out at 31.2 µM in the assay with NCI/ADR-RES ovarian; 40.5 µM in the assay on SR leukemia; 34 µM with SF-539 CNS; 28.1 µM in the assay with OVCAR-5 ovarian; 31.9 µM in the assay with SK-MEL-2 melanoma; 49.3 µM with RPMI-8226 leukemia. Further, the TGI with SK-MEL-28 melanoma worked out at 38.1 µM; in the assay with SK-MEL-5 melanoma, 29.9 µM; in the assay with MDA-MB-231 breast it was 36.5 µM.
`Cc1cc(=O)[nH]c2cc3c(c4c(n3Cc3ccc(Cl)cc3Cl)CC(C)(C)CC4=O)c(O)c12`: the GI50 was > 100 µM in the assay on NCI/ADR-RES ovarian; 25.2 µM in the assay with SR leukemia; > 100 µM in the assay on SF-539 CNS; > 100 µM in the assay with SK-MEL-2 melanoma; > 100 µM in the assay with RPMI-8226 leukemia; > 100 µM with SK-MEL-28 melanoma. Also, the values for the GI50 in the assay with HOP-62 NSCLC, with SK-MEL-5 melanoma and in the assay on MDA-MB-231 breast were 77.7 µM, 16.3 µM and > 100 µM, respectively. Further, the TGI in the assay on NCI/ADR-RES ovarian, with SR leukemia, in the assay on SF-539 CNS, in the assay with SK-MEL-2 melanoma, in the assay with RPMI-8226 leukemia and in the assay with SK-MEL-28 melanoma was > 100 µM throughout. The TGI in the assay on HOP-62 NSCLC was > 100 µM; in the assay on SK-MEL-5 melanoma, 31.8 µM; in the assay with MDA-MB-231 breast, > 100 µM.
